From patent publication US20130310347A1, “MULTI-MODALITY MOLECULAR IMAGING HIGH-THROUGHPUT ASSAY FOR IDENTIFYING HEAT SHOCK PROTEIN 90 (HSP90) INHIBITORS” (The Board of Trustees of the Leland Stanford Junior …, priority 2012, published 2013)

Tests used:
[1] = tested on: DOX-resistant V79/ADR lung cancer cells; assay: Sensitivity to DOX, Alamar Blue assay; assay type: cell-based; conditions: DOX 0.31-10 μM with inhibitor (CP9 8 μM), 24 h
Method: (§1) FIGS. 13A-13C illustrate the inhibition of cell proliferation of DOX-resistant V79/ADR lung cancer cells by CP9 and the Hsp90 inhibitor PU-H71 in cell culture. V79 lung cancer cells and […] cells that are resistant to DOX were treated with DOX (0.31-10 μM) in the presence or absence of CP9 (8 μM) for 24 h before determination of cell number by an Alamar Blue assay.
(§2) Both Hsp90 isoforms (α and β) are expressed in cancer cells, but Hsp90β is constitutively expressed, whereas the expression of Hsp90α is highly inducible during stress and drug treatment. Using the genetically encoded split Renilla reporter system according to the disclosure, it was possible to decipher the individual contributions of each isoform in determining the sensitivity of Hsp90 inhibitors. It was reported that the transcription of MDR1 is regulated by HSF-1, which in turn is regulated by Hsp90α (Trepel et al., (2010) Nat. Rev. Cancer 10: 537-549). To determine the biological significance of CP9 selectivity in inhibiting Hsp90α/p23 interactions, V79 lung cancer cells and V79/ADR cells that overexpress multidrug-resistant protein and are insensitive to growth inhibition by doxorubicin (DOX) were used. V79 and V79/ADR cells were treated with DOX alone or in the presence of CP9. On the other hand, the addition of CP9 sensitized V79/ADR cells to DOX, as shown by the decrease in cell proliferation relative to treatment with DOX alone, as shown in FIG. 13B. […] The results also are consistent with the observation that derivatives of Hsp90 inhibitor peptides sensitize cancer cells with overexpression of MDR to epirubicin (a class of anthracyclines that includes DOX) (Molnar et al., (2007) In Vivo 21: 429-433).

V79 lung cancer cells = assay: Sensitivity to DOX, Alamar Blue assay; assay type: cell-based; conditions: DOX 0.31-10 μM with CP9 8 μM, 24 h
Method: as §1, §2

With `Cc1cc(NC(=O)CSc2nc(-c3cccs3)cc(C(F)(F)F)n2)no1` [CP9, N-(5-methylisoxazol-3-yl)-2-(4-(thiophen-2-yl)-6-(trifluoromethyl)pyrimidin-2-ylthio)acetamide] the “sensitivity of drug-resistant V79/ADR cells to DOX” value [1] was “partially restored the sensitivity” and the “sensitivity of drug-sensitive V79 cells to DOX” value (V79 lung cancer cells) was “did not affect the sensitivity”.
